Experimental data reported in the NIST ThermoML archive (doi:10.1016/j.fluid.2015.08.008).
Numbers after ± are expanded uncertainties.

Experiments:
[1] = Boiling temperature at pressure P; conditions: Liquid, distillation unit - dew point temperature
[2] = 101.33 kPa, Liquid, Vibrating tube method

C1CN=C2CCCN2C1 [1,5-diazabicyclo[4.3.0]non-5-ene]
Conditions	Boiling temperature at pressure P [°C]	mass density [kg/m3]
[1], 0.71 kPa	85.69 ± 20	–
[1], 0.91 kPa	90.86 ± 18	–
[1], 0.92 kPa	91.46 ± 17	–
[1], 1.39 kPa	98.20 ± 13	–
[1], 1.41 kPa	98.90 ± 12	–
[1], 1.87 kPa	105.99 ± 14	–
[1], 2.81 kPa	114.1 ± 8.1	–
[1], 2.86 kPa	114.66 ± 8.1	–
[1], 3.37 kPa	117.81 ± 7.5	–
[1], 3.88 kPa	120.18 ± 6.4	–
[1], 5.11 kPa	127.00 ± 6.2	–
[1], 5.53 kPa	128.91 ± 5.3	–
[1], 6.11 kPa	131.70 ± 4.6	–
[1], 7.15 kPa	134.78 ± 4.5	–
[1], 8.11 kPa	139.00 ± 4.2	–
[1], 9.4 kPa	142.40 ± 3.5	–
[1], 10.12 kPa	144.50 ± 3.5	–
[1], 12.14 kPa	149.60 ± 3.6	–
[2], 293.15 K	–	1037.59 ± 0.065
[2], 298.15 K	–	1033.58 ± 0.063
[2], 303.15 K	–	1029.56 ± 0.061
[2], 308.15 K	–	1025.52 ± 0.06
[2], 313.15 K	–	1021.49 ± 0.058
[2], 318.15 K	–	1017.4 ± 0.056
[2], 323.15 K	–	1013.33 ± 0.054

C1CCC2=NCCCN2CC1 [1,8-diaza-7-bicyclo[5.4.0]undecene]
[1]
Conditions	Boiling temperature at pressure P [°C]
0.51 kPa	102.62 ± 25
0.71 kPa	110.30 ± 20
1.01 kPa	116.2 ± 16
1.31 kPa	122.00 ± 14
1.51 kPa	124.60 ± 19
1.71 kPa	127.70 ± 14
2.01 kPa	130.80 ± 13
2.31 kPa	133.90 ± 12
2.51 kPa	136 ± 11
3.01 kPa	139.72 ± 9.8
3.31 kPa	143.00 ± 9.2
3.51 kPa	143.80 ± 8.8
4.01 kPa	147.87 ± 8.2
4.21 kPa	149.07 ± 6.8
4.51 kPa	150.98 ± 6.4
5.01 kPa	153.77 ± 5.8
5.31 kPa	154.70 ± 5.8
6.31 kPa	159.30 ± 5.7
7.31 kPa	164.1 ± 5.9
